Source: patent US20230312578A1, “6H-INDOLO[2,3-B]QUINOXALINE DERIVATIVES USEFUL IN THERAPY” (Vironova Medical AB, priority 2020, published 2023)
Like-named read-outs stand apart in the source and are kept apart here.

Columns and labels:
Format in all cases: cell-based
[1] = Human tumor cell line growth assay (SRB); details: human, OVCAR-5 cells (ovarian), OVCAR-5, 48 h, read-out: LC50
[2] = tested on: OVCAR-5; test: Human tumor cell line growth assay (SRB); details: Homo sapiens; Ovarian, OVCAR-5, 48 h
[3] = tested on: MDA-MB-468; test: Human tumor cell line growth assay (SRB); details: Breast, MDA-MB-468, 48 h; for CC50: read-out: LC50 (the source's name)
[4] = Human tumor cell line growth assay (SRB); details: human, U251 cells (CNS), U251, 48 h, read-out: LC50
[5] = tested on: U251; test: Human tumor cell line growth assay (SRB); details: Homo sapiens, U-251; CNS, U251, 48 h
[6] = tested on: HOP-92; test: Human tumor cell line growth assay (SRB); details: Homo sapiens; NSCLC, HOP-92, 48 h
[7] = Human tumor cell line growth assay (SRB); details: human, HOP-92 cells (NSCLC), HOP-92, 48 h
[8] = tested on: KM12; test: Human tumor cell line growth assay (SRB); details: Homo sapiens; Colon, KM12, 48 h
[9] = Human tumor cell line growth assay (SRB); details: human, KM12 cells (colon), KM12, 48 h, read-out: LC50
[10] = tested on: HT29; test: Human tumor cell line growth assay (SRB); details: Homo sapiens, HT-29; Colon, HT29, 48 h
[11] = Human tumor cell line growth assay (SRB); details: human, HT29 cells (colon), HT29, 48 h, read-out: LC50
[12] = tested on: BT-549; test: Human tumor cell line growth assay (SRB); details: Breast, BT-549, 48 h; for CC50: read-out: LC50 (the source's name)
[13] = tested on: HCT-15; test: Human tumor cell line growth assay (SRB); details: Homo sapiens; Colon, HCT-15, 48 h
[14] = Human tumor cell line growth assay (SRB); details: human, SF-539 cells (CNS), SF-539, 48 h, read-out: LC50
[15] = tested on: SF-539; test: Human tumor cell line growth assay (SRB); details: Homo sapiens; CNS, SF-539, 48 h
[16] = Human tumor cell line growth assay (SRB); details: human, COLO 205 cells (colon), COLO 205, 48 h, read-out: LC50
[17] = tested on: COLO 205; test: Human tumor cell line growth assay (SRB); details: Homo sapiens; Colon, COLO 205, 48 h
[18] = tested on: UO-31; test: Human tumor cell line growth assay (SRB); details: Renal, UO-31, 48 h; for CC50: read-out: LC50 (the source's name)
[19] = tested on: NCI-H322M; test: Human tumor cell line growth assay (SRB); details: Homo sapiens, NSCLC, 48 h
[20] = Human tumor cell line growth assay (SRB); details: human, NCI-H322M cells (NSCLC), read-out: LC50
[21] = tested on: ACHN; test: Human tumor cell line growth assay (SRB); details: Renal, 48 h; for CC50: read-out: LC50 (the source's name)
[22] = Human tumor cell line growth assay (SRB); details: human, SK-MEL-28 cells (melanoma), SK-MEL-28, 48 h, read-out: LC50
[23] = tested on: SK-MEL-28; test: Human tumor cell line growth assay (SRB); details: Homo sapiens; Melanoma, SK-MEL-28, 48 h
[24] = tested on: OVCAR-8; test: Human tumor cell line growth assay (SRB); details: Ovarian, OVCAR-8, 48 h; for CC50: read-out: LC50 (the source's name)
[25] = tested on: MOLT-4; test: Human tumor cell line growth assay (SRB); details: Homo sapiens; Leukemia, MOLT-4, 48 h
[26] = Human tumor cell line growth assay (SRB); details: human, MOLT-4 cells (leukemia), MOLT-4, 48 h, read-out: LC50
[27] = Human tumor cell line growth assay (SRB); details: human, HCC-2998 cells (colon), HCC-2998, 48 h, read-out: LC50
[28] = tested on: HCC-2998; test: Human tumor cell line growth assay (SRB); details: Homo sapiens; Colon, HCC-2998, 48 h
[29] = tested on: NCI-H460; test: Human tumor cell line growth assay (SRB); details: Homo sapiens; NSCLC, NCI-H460, 48 h
[30] = Human tumor cell line growth assay (SRB); details: human, NCI-H460 cells (NSCLC), NCI-H460, 48 h, read-out: LC50
[31] = Human tumor cell line growth assay (SRB); details: human, UACC-62 cells (melanoma), UACC-62, 48 h, read-out: LC50
[32] = tested on: UACC-62; test: Human tumor cell line growth assay (SRB); details: Homo sapiens; Melanoma, UACC-62, 48 h
[33] = tested on: OVCAR-3; test: Human tumor cell line growth assay (SRB); details: Homo sapiens; Ovarian, OVCAR-3, 48 h
[34] = Human tumor cell line growth assay (SRB); details: human, OVCAR-3 cells (ovarian), OVCAR-3, 48 h, read-out: LC50
[35] = Human tumor cell line growth assay (SRB); details: human, SF-295 cells (CNS), SF-295, 48 h, read-out: LC50
[36] = tested on: SF-295; test: Human tumor cell line growth assay (SRB); details: Homo sapiens; CNS, SF-295, 48 h
[37] = tested on: Human tumor cell lines; test: Human tumor cell line growth assay (SRB), summary over the panel; details: overall over the panel

## Cc1cc2nc3c4ccccc4n(CCN(C)C)c3nc2cc1C [B220, 2-(2,3-dimethyl-6H-indolo [2,3-b]quinoxalin-6-yl)-N,N-dimethylethanamine, reference compound]
[1]
  CC50 at 48 h: 33400 nM
[2]
  GI50: 2100 nM
[3]
  GI50: 1320 nM
  CC50: 9930 nM
[4]
  CC50 at 48 h: 44600 nM
[5]
  GI50: 2010 nM
[6]
  GI50: 1360 nM
[7]
  LC50 at 48 h: > 100000 nM
[8]
  GI50: 1930 nM
[9]
  CC50 at 48 h: 38600 nM
[10]
  GI50: 760 nM
[11]
  CC50 at 48 h: 45300 nM
[12]
  GI50: 2070 nM
  CC50: 28700 nM
[13]
  GI50: 1770 nM
[14]
  CC50 at 48 h: 15000 nM
[15]
  GI50: 1830 nM
[16]
  CC50 at 48 h: 41000 nM
[17]
  GI50: 1290 nM
[18]
  GI50: 726 nM
  CC50: 91300 nM
[19]
  GI50: 1860 nM
[20]
  CC50 at 48 h: 31200 nM
[21]
  GI50: 555 nM
  CC50: 42200 nM
[22]
  CC50 at 48 h: 9450 nM
[23]
  GI50: 2090 nM
[24]
  GI50: 1160 nM
  CC50: 87200 nM
[25]
  GI50: 555 nM
[26]
  CC50 at 48 h: 95100 nM
[27]
  CC50 at 48 h: 15700 nM
[28]
  GI50: 1470 nM
[29]
  GI50: 709 nM
[30]
  CC50 at 48 h: 37300 nM
[31]
  CC50 at 48 h: 5580 nM
[32]
  GI50: 1430 nM
[33]
  GI50: 1910 nM
[34]
  CC50 at 48 h: 56800 nM
[35]
  CC50 at 48 h: 42500 nM
[36]
  GI50: 1390 nM

## COc1ccc2c(c1)c1nc3cc(C)c(C)cc3nc1n2CCN(C)C [JBA-094, 2-(9-methoxy-2,3-dimethyl-6H-indolo[2,3-b]quinoxalin-6-yl)-N,N-dimethylethanamine]
[1]
  CC50 at 48 h: 5280 nM
[2]
  GI50: 1120 nM
[3]
  GI50: 749 nM
  CC50: 6900 nM
[4]
  CC50 at 48 h: 6090 nM
[5]
  GI50: 526 nM
[6]
  GI50: 238 nM
[7]
  LC50 at 48 h: 6080 nM
[8]
  GI50: 1050 nM
[9]
  CC50 at 48 h: 6360 nM
[10]
  GI50: 369 nM
[11]
  CC50 at 48 h: 5720 nM
[12]
  GI50: 1650 nM
  CC50: 7090 nM
[13]
  GI50: 410 nM
[14]
  CC50 at 48 h: 5200 nM
[15]
  GI50: 663 nM
[17]
  GI50: 561 nM
[18]
  GI50: 273 nM
  CC50: 4930 nM
[19]
  GI50: 778 nM
[20]
  CC50 at 48 h: 6410 nM
[21]
  GI50: 358 nM
  CC50: 3960 nM
[22]
  CC50 at 48 h: 6760 nM
[23]
  GI50: 1790 nM
[24]
  GI50: 531 nM
[25]
  GI50: 420 nM
[26]
  CC50 at 48 h: 96000 nM
[27]
  CC50 at 48 h: 6320 nM
[28]
  GI50: 1080 nM
[29]
  GI50: 388 nM
[30]
  CC50 at 48 h: 4980 nM
[31]
  CC50 at 48 h: 6700 nM
[32]
  GI50: 898 nM
[33]
  GI50: 1260 nM
[34]
  CC50 at 48 h: 6130 nM
[35]
  CC50 at 48 h: 5130 nM
[36]
  GI50: 1110 nM

## Cc1cc2nc3c4cc([N+](=O)[O-])ccc4n(CCN(C)C)c3nc2cc1C [JBA-185, 2-(2,3-dimethyl-9-nitro-6H-indolo[2,3-b]quinoxalin-6-yl)-N,N-dimethylethanamine]
[1]
  CC50 at 48 h: > 100000 nM
[2]
  GI50: 587 nM
[3]
  GI50: 374 nM
  CC50: 5300 nM
[4]
  CC50 at 48 h: > 100000 nM
[5]
  GI50: 470 nM
[6]
  GI50: 642 nM
[7]
  LC50 at 48 h: > 100000 nM
[8]
  GI50: 567 nM
[9]
  CC50 at 48 h: > 100000 nM
[10]
  GI50: 375 nM
[11]
  CC50 at 48 h: > 100000 nM
[12]
  GI50: 1950 nM
  CC50: > 100000 nM
[13]
  GI50: 349 nM
[14]
  CC50 at 48 h: 18100 nM
[15]
  GI50: 387 nM
[16]
  CC50 at 48 h: > 100000 nM
[17]
  GI50: 360 nM
[18]
  GI50: 187 nM
  CC50: 21200 nM
[19]
  GI50: 467 nM
[20]
  CC50 at 48 h: > 100000 nM
[21]
  GI50: 316 nM
  CC50: 2460 nM
[22]
  CC50 at 48 h: 5650 nM
[23]
  GI50: 807 nM
[24]
  GI50: 550 nM
  CC50: > 100000 nM
[25]
  GI50: 368 nM
[26]
  CC50 at 48 h: > 100000 nM
[27]
  CC50 at 48 h: 6530 nM
[28]
  GI50: 756 nM
[29]
  GI50: 350 nM
[30]
  CC50 at 48 h: 26700 nM
[31]
  CC50 at 48 h: 5780 nM
[32]
  GI50: 514 nM
[33]
  GI50: 590 nM
[34]
  CC50 at 48 h: > 100000 nM
[35]
  CC50 at 48 h: 8640 nM
[36]
  GI50: 388 nM
[37]
  cytotoxicity, comparison in words: less cytotoxic than B220
  growth inhibition (GI50), comparison in words: lower GI50 compared to B220

## Cc1cc2nc3c4cc(O)ccc4n(CCN(C)C)c3nc2cc1C [JBD-139, 6-(2-(dimethylamino)ethyl)-2,3-dimethyl-6H-indolo [2,3-b]quinoxalin-9-ol]
[1]
  CC50 at 48 h: > 100000 nM
[2]
  GI50: 867 nM
[3]
  GI50: 518 nM
  CC50: > 100000 nM
[5]
  GI50: 356 nM
[6]
  GI50: 246 nM
[7]
  LC50 at 48 h: > 100000 nM
[8]
  GI50: 512 nM
[10]
  GI50: 379 nM
[11]
  CC50 at 48 h: > 100000 nM
[12]
  GI50: 1840 nM
  CC50: > 100000 nM
[13]
  GI50: 405 nM
[15]
  GI50: 422 nM
[16]
  CC50 at 48 h: > 100000 nM
[17]
  GI50: 470 nM
[18]
  GI50: 1390 nM
  CC50: 4180 nM
[19]
  GI50: 516 nM
[20]
  CC50 at 48 h: > 100000 nM
[21]
  GI50: 307 nM
[23]
  GI50: 1500 nM
[24]
  GI50: 412 nM
  CC50: > 100000 nM
[25]
  GI50: 359 nM
[26]
  CC50 at 48 h: > 100000 nM
[28]
  GI50: 750 nM
[29]
  GI50: 348 nM
[31]
  CC50 at 48 h: 6370 nM
[32]
  GI50: 479 nM
[33]
  GI50: 970 nM
[35]
  CC50 at 48 h: > 100000 nM
[36]
  GI50: 756 nM
[37]
  cytotoxicity, comparison in words: cytotoxicity that is higher
